Values of other authors as cited in PMC5572576 (The Lancet. Oncology, 2017).

What was measured:
c-Kit = settings: cell-based assays; cited from earlier work
[1] = molecular target: leukocyte receptor tyrosine kinase (LTK); settings: panel of 78 kinases; cited from earlier work

What does the source list for `CCc1nc(C(N)=O)c(Nc2ccc(N3CCC(N4CCN(C)CC4)CC3)c(OC)c2)nc1NC1CCOCC1` [gilteritinib]?
IC50 (c-Kit): 102 nM; kinase inhibition [1]: strong inhibitor
